ChEMBL document CHEMBL5385939, “Novel ether derivatives of 11-azaartemisinins with high order antimalarial activity against multidrug-resistant Plasmodium yoelii in Swiss mice” (2024)
Calls of active or inactive are those of the source. No cut-off for these calls is given here.

Tests used:
[1] = system: Plasmodium yoelii; experiment: Antimalarial activity against multidrug resistant Plasmodium yoelii infected in swiss mouse assessed as reduction in parasitaemia at 24 mg/kg, po administered for 4 days; type: functional; design: scale not given: the % may be the effect or the level left; settings: time 4 day
[2] = system: Plasmodium yoelii; experiment: Antimalarial activity against multidrug resistant Plasmodium yoelii infected in swiss mouse assessed as reduction in parasitaemia at 3 mg/kg, IM administered for 4 days; type: functional; design: scale not given: the % may be the effect or the level left; settings: time 4 day
[3] = system: Plasmodium yoelii; experiment: Antimalarial activity against multidrug resistant Plasmodium yoelii infected in swiss mouse assessed as increase in survival time at 6 mg/kg, IM administered for 4 days and measured on day 28; type: functional, organism-based; settings: time 28.0 day
[4] = system: Plasmodium yoelii; experiment: Antimalarial activity against multidrug resistant Plasmodium yoelii infected in swiss mouse assessed as increase in survival time at 12 mg/kg, IM administered for 4 days and measured on day 28; type: functional, organism-based; settings: time 28.0 day
[5] = system: Plasmodium yoelii; experiment: Antimalarial activity against multidrug resistant Plasmodium yoelii infected in swiss mouse assessed as increase in survival time at 3 mg/kg, IM administered for 4 days and measured on day 28; type: functional, organism-based; settings: time 28.0 day
[6] = system: Plasmodium yoelii; experiment: Antimalarial activity against multidrug resistant Plasmodium yoelii infected in swiss mouse assessed as increase in survival time at 48 mg/kg, po administered for 4 days and measured on day 28; type: functional, organism-based; settings: time 28.0 day
[7] = system: Plasmodium yoelii; experiment: Antimalarial activity against multidrug resistant Plasmodium yoelii infected in swiss mouse assessed as reduction in parasitaemia at 6 mg/kg, IM administered for 4 days; type: functional; design: scale not given: the % may be the effect or the level left; settings: time 4 day
[8] = system: Plasmodium yoelii; experiment: Antimalarial activity against multidrug resistant Plasmodium yoelii infected in swiss mouse assessed as reduction in parasitaemia at 12 mg/kg, IM administered for 4 days; type: functional; design: scale not given: the % may be the effect or the level left; settings: time 4 day
[9] = system: Plasmodium yoelii; experiment: Antimalarial activity against multidrug resistant Plasmodium yoelii infected in swiss mouse assessed as increase in survival time at 24 mg/kg, po administered for 4 days and measured on day 28; type: functional, organism-based; settings: time 28.0 day
[10] = system: Plasmodium yoelii; experiment: Antimalarial activity against multidrug resistant Plasmodium yoelii infected in swiss mouse assessed as reduction in parasitaemia at 48 mg/kg, po administered for 4 days; type: functional; design: scale not given: the % may be the effect or the level left; settings: time 4 day
[11] = system: Plasmodium yoelii; experiment: Antimalarial activity against multidrug resistant Plasmodium yoelii infected in swiss mouse assessed as reduction in parasitaemia at 48 mg/kg, IM administered for 4 days; type: functional; design: scale not given: the % may be the effect or the level left; settings: time 4 day
[12] = system: Plasmodium yoelii; experiment: Antimalarial activity against multidrug resistant Plasmodium yoelii infected in swiss mouse assessed as increase in survival time at 48 mg/kg, IM administered for 4 days and measured on day 28; type: functional, organism-based; settings: time 28.0 day
[13] = system: Plasmodium yoelii; experiment: Antimalarial activity against multidrug resistant Plasmodium yoelii infected in swiss mouse assessed as increase in survival time at 24 mg/kg, IM administered for 4 days and measured on day 28; type: functional, organism-based; settings: time 28.0 day
[14] = system: Plasmodium yoelii; experiment: Antimalarial activity against multidrug resistant Plasmodium yoelii infected in swiss mouse assessed as reduction in parasitaemia at 24 mg/kg, IM administered for 4 days; type: functional; design: scale not given: the % may be the effect or the level left; settings: time 4 day
[15] = system: Plasmodium yoelii; experiment: Antimalarial activity against multidrug resistant Plasmodium yoelii infected in swiss mouse assessed as increase in survival time at 12 mg/kg, po administered for 4 days and measured on day 28; type: functional, organism-based; settings: time 28.0 day
[16] = system: Plasmodium yoelii; experiment: Antimalarial activity against multidrug resistant Plasmodium yoelii infected in swiss mouse assessed as reduction in parasitaemia at 12 mg/kg, po administered for 4 days; type: functional; design: scale not given: the % may be the effect or the level left; settings: time 4 day

| Compound | Activity [1] [%] | Activity [4] | Activity [7] [%] | Activity [8] [%] | further results |
| --- | --- | --- | --- | --- | --- |
| CCOC1O[C@@H]2O[C@@]3(C)CC[C@H]4[C@H](C)CC[C@@H]([C@H]1C)[C@@]24OO3 (stereo partly specified) | 100 | Active | 100 | 100 | Activity [2]: 100%; Activity [3]: Active; Activity [5]: inactive; Activity [6]: Active |
| C[C@@H]1CC[C@H]2[C@@H](C)C(=O)N(CCOCc3ccc([N+](=O)[O-])cc3)[C@@H]3O[C@@]4(C)CC[C@@H]1[C@@]23OO4 | 90 | Active | 100 | 100 | Activity [3]: inactive; Activity [9]: inactive |
| C[C@@H]1CC[C@H]2[C@@H](C)C(=O)N(CCO)[C@@H]3O[C@@]4(C)CC[C@@H]1[C@@]23OO4 | 10 | – | – | – | Activity [10]: 100%; Activity [6]: inactive; Activity [11]: 100% |
| C[C@@H]1CC[C@H]2[C@@H](C)C(=O)N(CCOCCCc3ccccc3)[C@@H]3O[C@]4(C)CC[C@@H]1[C@@]23OO4 | 100 | inactive | 100 | 91 | – |
| C[C@@H]1CC[C@H]2[C@@H](C)C(=O)N(CCOCc3ccccc3)[C@@H]3O[C@]4(C)CC[C@@H]1[C@@]23OO4 | 100 | Active | 100 | 100 | Activity [3]: inactive |
| C[C@@H]1CC[C@H]2[C@@H](C)C(=O)N(OCc3ccc([N+](=O)[O-])cc3)[C@@H]3O[C@@]4(C)CC[C@@H]1[C@@]23OO4 | 100 | – | – | 100 | – |
| C[C@@H]1CC[C@H]2[C@@H](C)C(=O)N(CCOCc3ccccc3F)[C@@H]3O[C@@]4(C)CC[C@@H]1[C@@]23OO4 | 100 | – | – | 100 | – |
| C[C@@H]1CC[C@H]2[C@@H](C)C(=O)N(CCOCc3ccc(-c4ccccc4)cc3)[C@@H]3O[C@@]4(C)CC[C@@H]1[C@@]23OO4 | 100 | – | – | 100 | – |
| C[C@@H]1CC[C@H]2[C@@H](C)C(=O)N(O)[C@@H]3O[C@@]4(C)CC[C@@H]1[C@@]23OO4 | – | – | – | – | Activity [12]: inactive; Activity [11]: 78% |
| C[C@@H]1CC[C@H]2[C@@H](C)C(=O)N(N)[C@@H]3O[C@@]4(C)CC[C@@H]1[C@@]23OO4 | 100 | – | – | – | Activity [13]: inactive; Activity [14]: 100%; Activity [15]: inactive; Activity [16]: 99% |
| C[C@@H]1CC[C@H]2[C@@H](C)C(=O)N(OCCCc3ccccc3)[C@@H]3O[C@@]4(C)CC[C@@H]1[C@@]23OO4 | 94 | inactive | – | 81 | Activity [9]: inactive |
| C[C@@H]1CC[C@H]2[C@@H](C)C(=O)N(NCc3ccc(Br)cc3)[C@@H]3O[C@@]4(C)CC[C@@H]1[C@@]23OO4 | 100 | – | – | 100 | – |
